Several values for one entry are separate records, joined by “and”; a condition that tells them apart may be missing. Equal values may be shown once.
Assay: xn = mol fraction of the nth substance listed

CCCC[n+]1ccn(C)c1.F[B-](F)(F)F + CS(C)=O
100 kPa
Details	electrical conductivity, 298.15 K [S/m]	viscosity, 298.15 K	viscosity, 303.15 K [mPa·s]	viscosity, 308.15 K [mPa·s]	viscosity, 313.15 K [mPa·s]
x1 = 0.0192	–	3.4 mPa·s	2.9	2.46	2.17
x1 = 0.0447	–	5.06 mPa·s	4.12	3.28	2.8
x1 = 0.0661	–	6.29 mPa·s	5.13	3.85	3.2
x1 = 0.0722	0.974	3.144 mPa·s	–	–	–
x1 = 0.0974	–	8.27 mPa·s	6.5	4.89	4.03
x1 = 0.1622	–	12.79 mPa·s	9.68	6.72	5.22
x1 = 0.1764	–	5.489 mPa·s	–	–	–
x1 = 0.2138	–	16.68 mPa·s	12.57	8.83	6.86
x1 = 0.2145	1.016	6.836 mPa·s	–	–	–
x1 = 0.2889	–	22.73 mPa·s	17.15	11.9	9.21
x1 = 0.3225	0.831	11.38 mPa·s	–	–	–
x1 = 0.3735	–	30.07 mPa·s	22.87	15.97	12.58
x1 = 0.4189	0.672	17.2 mPa·s	–	–	–
x1 = 0.4431	–	36.58 mPa·s	27.97	19.78	15.65
x1 = 0.5247	–	44.65 mPa·s	34.44	24.63	19.75
x1 = 0.607	0.436	34 mPa·s	–	–	–
x1 = 0.6172	–	54.3 mPa·s	42.3	30.73	24.85
x1 = 0.6557	0.352	38.87 mPa·s	–	–	–
x1 = 0.6772	–	61 mPa·s	47.6	34.97	28.49
x1 = 0.7513	–	69.5 mPa·s	54.7	40.59	33.35
x1 = 0.7958	–	75 mPa·s	59.2	44.05	36.37
x1 = 0.8283	0.284	–	–	–	–
x1 = 0.8516	–	81.9 mPa·s	–	48.7	40.3
x1 = 0.8954	–	87.5 mPa·s	69.6	52.5	43.72
x1 = 0.9155	–	82.7 mPa·s	–	–	–
x1 = 0.9373	–	92.9 mPa·s	74.1	56.2	46.9
x1 = 0.9687	–	97.1 mPa·s	77.5	59	49.4
x1 = 1	0.243	101 mPa·s and 104.7 mPa·s	80.7	61.5	51.5

CCCCOCCO + CCCC[n+]1ccn(C)c1.[Br-]
100 kPa, x2 = 0
Details	viscosity [mPa·s]
298.15 K	2.79
303.15 K	2.44
308.15 K	2.22
313.15 K	1.98

CCCC[n+]1ccn(C)c1.F[B-](F)(F)F + OCC(F)(F)F
101 kPa, x2 = 0
Details	viscosity [mPa·s]
278.15 K	360
283.15 K	255
288.15 K	186
293.15 K	139
298.15 K	106
303.15 K	82.2
308.15 K	65
313.15 K	52.2
318.15 K	42.6
323.15 K	35.2
328.15 K	29.5
333.15 K	25

CC[n+]1ccn(C)c1.N#C[N-]C#N + OCC(F)(F)F
100 kPa
Details	viscosity [mPa·s]
298.15 K, x1 = 0.2936	4.06
298.15 K, x1 = 0.3935	5.03
303.15 K, x1 = 0.1031	2.18
303.15 K, x1 = 0.5915	6.32
308.15 K, x1 = 0.8915	8.72
313.15 K, x1 = 1	8.86
318.15 K, x1 = 0.1957	2.07
318.15 K, x1 = 0.2936	2.62

CC[n+]1ccn(C)c1.N#C[N-]C#N + CC[n+]1ccn(C)c1.N#C[S-]
100 kPa
Details	electrical conductivity [S/m]	viscosity [mPa·s]
298.15 K, x2 = 0.2585	2.68	16.36
308.15 K, x2 = 0.2585	3.45	12.4
318.15 K, x2 = 0	4.52	8.93
318.15 K, x2 = 0.7603	4.01	11.79
323.15 K, x2 = 0.5112	4.62	9.51
328.15 K, x2 = 0.2585	–	7.87
333.15 K, x2 = 0	–	6.37
338.15 K, x2 = 0.2585	–	6.49
348.15 K, x2 = 0.5112	–	5.87
353.15 K, x2 = 0.7603	–	5.7

C[C@H](N)C(=O)O + CCCCCCCCCCCC[N+](C)(C)Cc1ccccc1.[Cl-] + O
electrical conductivity [S/m], 101 kPa
Details	293.15 K	298.15 K	303.15 K	308.15 K	313.15 K
x1 = 0.000902, x2 = 0	0.0002	0.000236	0.000271	0.00031	0.000356
x1 = 0.001774, x2 = 0	0.000272	0.000323	0.000378	0.000442	0.000511

CC1COC(=O)O1 (centres undefined) + CCCC[N+]1(C)CCCC1.O=S(=O)([N-]S(=O)(=O)C(F)(F)F)C(F)(F)F
101 kPa, x1 = 1
Details	electrical conductivity [S/m]	viscosity [mPa·s]
293.15 K	0.002	2.72
303.15 K	0.002	2.29
313.15 K	0.002	2

CCCCCCCCCC[n+]1ccn(C)c1.F[B-](F)(F)F + CCCCCCCCn1cc[n+](C)c1.[Br-] + O
298.15 K, 101 kPa
Details	electrical conductivity [S/m]
x2 = 0.0007563, x1 = 0.0001261	0.4
x2 = 0.001655, x1 = 0.0002882	0.71
x2 = 0.00196, x1 = 0.0003423	0.81
x2 = 0.002283, x1 = 0.0003963	0.87
x2 = 0.002552, x1 = 0.0004503	0.94
x2 = 0.002857, x1 = 0.0005043	0.99
x2 = 0.003126, x1 = 0.0005583	1.04
x2 = 0.003341, x1 = 0.0005943	1.09
x2 = 0.003645, x1 = 0.0006483	1.14
x2 = 0.003877, x1 = 0.0006843	1.18
x2 = 0.004253, x1 = 0.0007563	1.23
x2 = 0.004574, x1 = 0.0008102	1.28
x2 = 0.004788, x1 = 0.0008462	1.31
x2 = 0.005092, x1 = 0.0009002	1.35
x2 = 0.005359, x1 = 0.0009541	1.4
x2 = 0.005626, x1 = 0.001008	1.43

CCCCCCCCn1cc[n+](C)c1.O=S(=O)([N-]S(=O)(=O)C(F)(F)F)C(F)(F)F + c1ccccc1
293 K, 101 kPa
Details	viscosity [mPa·s]
x1 = 0.2	7.34
x1 = 0.6	46.2

— the CheMixHub ionic liquid set
